According to publication PMC4269550, “Lead Optimization of a Pyrazole Sulfonamide Series of Trypanosoma bruceiN-Myristoyltransferase Inhibitors: Identification and Evaluation of CNS Penetrant Compounds as Potential Treatments for Stage 2 Human African Trypanosomiasis” (Journal of Medicinal Chemistry, 2014):
pEC50, pIC50: −log10 of the molar value. Where “and” joins values, the source holds several entries; their conditions need not be identical. Identical values can stand only once. Like-named read-outs stand apart in the source and are kept apart here.

Tests used:
HsNMT = assay type: biochemical, human; conditions: for pIC50: mean of two or more determinations
[1] = Intrinsic clearance (Cli), mouse liver microsomes; assay type: in vitro ADME; conditions: for Cli: mouse microsomes
in vitro = assay type: cell-based, human; conditions: human
[2] = test system: T. b. brucei, BSF427, VSG118; assay: Cell viability assay, trypanosome; assay type: cell-based
[3] = test system: MRC5, human lung fibroblast cells; assay: in vitro; assay type: cell-based
TbNMT = molecular target: T1, TbNMT (Trypanosoma brucei brucei, UniProt Q388H8); assay: NMT enzyme inhibition scintillation proximity assay (TbNMT); assay type: biochemical, T. brucei
T1 sequence (Q388H8 1-446): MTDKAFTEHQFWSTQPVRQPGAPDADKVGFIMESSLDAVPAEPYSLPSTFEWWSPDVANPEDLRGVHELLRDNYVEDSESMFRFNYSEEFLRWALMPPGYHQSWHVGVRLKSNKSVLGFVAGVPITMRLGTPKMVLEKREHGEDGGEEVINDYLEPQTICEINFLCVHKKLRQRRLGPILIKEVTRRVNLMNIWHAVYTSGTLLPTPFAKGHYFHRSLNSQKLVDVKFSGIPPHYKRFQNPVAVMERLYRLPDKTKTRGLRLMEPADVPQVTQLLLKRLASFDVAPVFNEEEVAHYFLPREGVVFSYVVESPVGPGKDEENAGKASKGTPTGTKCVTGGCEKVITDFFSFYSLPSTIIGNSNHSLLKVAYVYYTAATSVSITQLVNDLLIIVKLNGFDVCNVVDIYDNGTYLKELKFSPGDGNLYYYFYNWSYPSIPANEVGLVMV

[4] = mean of two or more determinations, read-out: TbNMT IC50

With `CCN(C)CCCCCCc1cc(Cl)c(S(=O)(=O)N(c2c(C)nn(C)c2C)C(F)F)c(Cl)c1` [compound 83] the “S = IC50 HsNMT/EC50 T. brucei” value (HsNMT; selectivity) was 3 and 5.
With `Cc1nn(C)c(C)c1N(C(F)F)S(=O)(=O)c1c(Cl)cc(CCCOC[C@H]2CCCCN2C)cc1Cl` [compound 52] the “Cli (mouse)” value ([1]; mouse liver microsomes) was 14.2 mL min^–1 g^–1.
With `Cc1nn(C)c(C)c1NS(=O)(=O)c1ccc(-c2ccnc(N3CCNC(C(C)C)C3)c2)cc1` (stereo not drawn) [compound 63] the pEC50 (in vitro; read-out: MRC-5 EC50) was 5.09 and the pEC50 ([2]; Trypanosoma brucei) was 6.85.
In the case of `Cc1nn(C)c(C)c1N(C(F)F)S(=O)(=O)c1c(Cl)cc(CCCCCCN(C)C)cc1Cl` [compound 48], the “Cli (mouse)” value ([1]; mouse liver microsomes) was 3.7 mL min^–1 g^–1.
With `Cc1nn(C)c(C)c1NS(=O)(=O)c1c(Cl)cc(CCCC2CCN(C)CC2)cc1Cl` [compound 16] the “Cli (mouse)” value ([1]; mouse liver microsomes) was 4.3 mL min^–1 g^–1 and the Cli [1] was 4.3 mL/min/g.
With `Cc1nn(C)c(C)c1N(C(F)F)S(=O)(=O)c1c(Cl)cc(CCCN2CCCNCC2)cc1Cl` [compound 66] the pEC50 [3] was 6.47.
With `Cc1nn(C)c(C)c1NS(=O)(=O)c1c(Cl)cc(Br)cc1Cl` [compound 7, 4-bromo-2,6-dichloro-N-(1,3,5-trimethyl-1H-pyrazol-4-yl)-benzenesulfonamide] the “Cli (mouse)” value ([1]; mouse liver microsomes) was 14 mL min^–1 g^–1 and the EC50 at 69 h (in vitro) was over 50000 nM.
For `Cc1nn(C)c(C)c1N(C(F)F)S(=O)(=O)c1c(Cl)cc(CCCCCCn2ccnc2)cc1Cl` [compound 67], the pEC50 (in vitro; read-out: MRC-5 EC50) was 5.14, the pEC50 ([2]; Trypanosoma brucei) was 7.46 and the “S = IC50 HsNMT/EC50 T. brucei” value (HsNMT) was 4. For the same compound, the pIC50 (HsNMT) was 6.85 and the pIC50 (TbNMT) was 8.30.
For `Cc1nn(C)c(C)c1NS(=O)(=O)c1ccc(-c2ccnc(N3CCNCC3)c2)cc1Cl` [compound 54], the pEC50 [3] was 6.60.
`Cc1nn(C)c(C)c1NS(=O)(=O)c1ccc(-c2ccnc(N3CC(C)NC(C)C3)c2)cc1` (stereo not drawn) [compound 62] gave a pEC50 (in vitro; read-out: MRC-5 EC50) of 5.57 and a pEC50 ([2]; Trypanosoma brucei) of 7.52.
In the case of `Cc1nn(C)c(C)c1N(C(F)F)S(=O)(=O)c1c(Cl)cc(CCCOC[C@@H]2CCCN2C)cc1Cl` [compound 49], the “Cli (mouse)” value ([1]; mouse liver microsomes) was 8.7 mL min^–1 g^–1.
For `Cc1nn(C)c(C)c1N(C(F)F)[S+](=O)([O-])c1c(Cl)cc(CCCOC2CCN(C)CC2)cc1Cl` [compound 47], the “Cli (mouse)” value ([1]; mouse liver microsomes) was 3.7 mL min^–1 g^–1.
Compound `Cc1nn(C)c(C)c1N(C(F)F)S(=O)(=O)c1c(Cl)cc(CCCCCCN2CCOCC2)cc1Cl` [compound 79] has a pEC50 [3] of 4.91, a pEC50 [2] of 6.49 and a pIC50 (TbNMT; [4]) of 7.26.
For `Cc1nn(C)c(C)c1N(C)[S+](=O)([O-])c1c(Cl)cc(CCCCCCn2ccnc2)cc1Cl` [compound 36], the “Cli (mouse)” value ([1]; mouse liver microsomes) was 3.0 mL min^–1 g^–1 and the pEC50 (in vitro; MRC-5 EC50) was 5.11.
For `Cc1nn(C)c(C)c1NS(=O)(=O)c1c(Cl)cc(CCCN2CCN(C)CC2)cc1Cl` [compound 14], the “Cli (mouse)” value ([1]; mouse liver microsomes) was 1.7 mL min^–1 g^–1 and the Cli [1] was 1.7 mL/min/g.
Work on `Cc1nn(C)c(C)c1NS(=O)(=O)c1ccc(CCCC2CCNCC2)cc1` [compound 19] yielded an EC50 at 69 h (in vitro; MRC-5 EC50) of over 50000 nM.
Compound `Cc1nn(C)c(C)c1N(C(F)F)[S+](=O)([O-])c1c(Cl)cc(CCCCCCn2ccnc2C)cc1Cl` [compound 68] has a pEC50 (in vitro; read-out: MRC-5 EC50) of 6.04 and a pEC50 ([2]; Trypanosoma brucei) of 8.30.
For `Cc1nn(C)c(C)c1N(CC(F)F)S(=O)(=O)c1c(Cl)cc(CCCC2CCN(C)CC2)cc1Cl` [compound 41], the “Cli (mouse)” value ([1]; mouse liver microsomes) was 2.2 mL min^–1 g^–1 and the Cli [1] was 2.2 mL/min/g.
In the case of `Cc1nn(C)c(C)c1N(C(F)F)[S+](=O)([O-])c1c(Cl)cc(CCCCC2CCNCC2)cc1Cl` [compound 45], the “Cli (mouse)” value ([1]; mouse liver microsomes) was 1.0 mL min^–1 g^–1.
With `Cc1nn(C)c(C)c1N(C)S(=O)(=O)c1ccc(CCCC2CCN(C)CC2)cc1` [compound 38] the “Cli (mouse)” value ([1]; mouse liver microsomes) was 3.7 mL min^–1 g^–1 and the pEC50 (in vitro; read-out: MRC-5 EC50) was 4.38.
With `Cc1nn(C)c(C)c1NS(=O)(=O)c1ccc(-c2ccnc(N3CCNC(c4ccccc4)C3)c2)cc1` (stereo not drawn) [compound 61] the pEC50 (in vitro; read-out: MRC-5 EC50) was under 4.30, the pEC50 ([2]; Trypanosoma brucei) was under 5.00 and the pIC50 (HsNMT) was 5.61. The “S = IC50 HsNMT/EC50 T. brucei” value (HsNMT; selectivity) was under 1 and the pIC50 (TbNMT) was 6.10.
`Cc1nn(C)c(C)c1N(C(F)F)[S+](=O)([O-])c1c(Cl)cc(CCCN2CCCN(C)CC2)cc1Cl` [compound 65] gave a pEC50 (in vitro; read-out: MRC-5 EC50) of 6.39 and a pEC50 ([2]; Trypanosoma brucei) of 9.22.
Compound `Cc1nn(C)c(C)c1N(C(F)F)S(=O)(=O)c1c(Cl)cc(CCCOC2CC3CCC(C2)N3C)cc1Cl` (stereo not drawn) [compound 72] has a pEC50 [3] of 7.15, a pEC50 [2] of 9.70 and a pIC50 (HsNMT) of 8.70. The “S = IC50 HsNMT/EC50 T. brucei” value (HsNMT; selectivity) was 10.
`Cc1cc(-c2ccnc(N3CCNCC3)c2)ccc1S(=O)(=O)Nc1c(C)nn(C)c1C` [compound 57] showed a pEC50 [3] of 6.28 and a pEC50 [2] of 8.40.
With `Cc1nn(C)c(C)c1N(C(F)F)S(=O)(=O)c1c(Cl)cc(CCCOC[C@@H]2CCCCN2C)cc1Cl` [compound 50] the “Cli (mouse)” value ([1]; mouse liver microsomes) was 9.8 mL min^–1 g^–1.
In the case of `Cc1nn(C)c(C)c1NS(=O)(=O)c1c(Cl)cc(C#CCN2CCN(C)CC2)cc1Cl` [compound 13], the EC50 at 69 h (in vitro; MRC-5 EC50) was over 50000 nM.
`CCc1nccn1CCCCCCc1cc(Cl)c([S+](=O)([O-])N(c2c(C)nn(C)c2C)C(F)F)c(Cl)c1` [compound 69] showed a pEC50 (in vitro; read-out: MRC-5 EC50) of 5.11 and a pEC50 ([2]; Trypanosoma brucei) of 6.82.
Work on `Cc1nn(C)c(C)c1NS(=O)(=O)c1ccc(CCCN2CCN(C)CC2)cc1` [compound 15] yielded an EC50 at 69 h (in vitro; MRC-5 EC50) of over 50000 nM.
In the case of `Cc1nn(C)c(C)c1N(C)S(=O)(=O)c1ccc(-c2cccc(CN3CCN(C)CC3)c2)cc1` [compound 32], the “Cli (mouse)” value ([1]; mouse liver microsomes) was 9.7 mL min^–1 g^–1.
Compound `Cc1nn(C)c(C)c1NS(=O)(=O)c1ccc(-c2ccnc(N3CCNC(Cc4ccccc4)C3)c2)cc1` (stereo not drawn) [compound 64] has a pEC50 (in vitro; read-out: MRC-5 EC50) of under 4.30, a pEC50 ([2]; Trypanosoma brucei) of under 5.00 and a pIC50 (HsNMT) of 5.82. The “S = IC50 HsNMT/EC50 T. brucei” value (HsNMT; selectivity) was under 1 and the pIC50 (TbNMT) was 6.96.
For `Cc1nn(C)c(C)c1NS(=O)(=O)c1ccc(-c2cccc(CN3CCN(C)CC3)c2)cc1` [compound 31], the “Cli (mouse)” value ([1]; mouse liver microsomes) was 1.2 mL min^–1 g^–1.
With `Cc1nn(C)c(C)c1N(C(F)F)S(=O)(=O)c1c(Cl)cc(CCCOC[C@H]2CCCN2)cc1Cl` [compound 87] the pEC50 [3] was 5.49, the pIC50 (HsNMT) was 7.48 and the “S = IC50 HsNMT/EC50 T. brucei” value (HsNMT; selectivity) was 7. The pIC50 (TbNMT; [4]) was 8.52.
With `Cc1nn(C)c(C)c1N(C(F)F)S(=O)(=O)c1c(Cl)cc(-c2ccnc(N3CCNCC3)c2)cc1Cl` [compound 74] the pEC50 [3] was 6.85 and the pEC50 [2] was 8.52.
For `Cc1nn(C)c(C)c1N(C)[S+](=O)([O-])c1ccc(-c2ccnc(N3CCNCC3)c2)cc1` [compound 30], the “Cli (mouse)” value ([1]; mouse liver microsomes) was 1.3 mL min^–1 g^–1.
In the case of `Cc1nn(C)c(C)c1N(C(F)F)[S+](=O)([O-])c1c(Cl)cc(CCCC2CCNCC2)cc1Cl` [compound 43], the “Cli (mouse)” value ([1]; mouse liver microsomes) was 0.8 mL min^–1 g^–1.
With `Cc1nn(C)c(C)c1NS(=O)(=O)c1c(F)cc(-c2ccnc(N3CCNCC3)c2)cc1F` [compound 59] the “Cli (mouse)” value ([1]; Table S1, unit not given) was under 0.5, the pEC50 [3] was 5.33 and the pEC50 [2] was 8.30. It also gave a pIC50 (TbNMT; [4]) of 8.40.
For `Cc1nn(C)c(C)c1N(C(F)F)S(=O)(=O)c1c(Cl)cc(CCCCCCn2ccnc2C(C)C)cc1Cl` [compound 70], the pEC50 (in vitro; read-out: MRC-5 EC50) was 5.44, the pEC50 ([2]; Trypanosoma brucei) was 6.57 and the “S = IC50 HsNMT/EC50 T. brucei” value (HsNMT) was 2. It also gave a pIC50 (HsNMT) of 6.30 and a pIC50 (TbNMT) of 7.60.
For `Cc1nn(C)c(C)c1NS(=O)(=O)c1ccc(-c2ccnc(N3CCNC(C)C3)c2)cc1` (stereo not drawn) [compound 60], the pEC50 (in vitro; read-out: MRC-5 EC50) was 6.10 and the pEC50 ([2]; Trypanosoma brucei) was 8.40.
In the case of `Cc1nn(C)c(C)c1N(C(F)F)[S+](=O)([O-])c1c(Cl)cc(CCCN2CCN(C)CC2)cc1Cl` [compound 44], the “Cli (mouse)” value ([1]; mouse liver microsomes) was 4.2 mL min^–1 g^–1.
In the case of `Cc1nn(C)c(C)c1NS(=O)(=O)c1ccc(-c2ccnc(N3CCNCC3)c2)cc1F` [compound 58], the “Cli (mouse)” value ([1]; Table S1, unit not given) was under 0.5 and the pEC50 (in vitro; read-out: MRC-5 EC50) was 6.28.
In the case of `Cc1nn(C)c(C)c1N(C)[S+](=O)([O-])c1c(Cl)cc(-c2ccnc(N3CCNCC3)c2)cc1Cl` [compound 29], the “Cli (mouse)” value ([1]; mouse liver microsomes) was 17 mL min^–1 g^–1.
In the case of `Cc1nn(C)c(C)c1N(C)S(=O)(=O)c1c(Cl)cc(CCCCCn2ccnc2)cc1Cl` [compound 35], the “Cli (mouse)” value ([1]; mouse liver microsomes) was 2.0 mL min^–1 g^–1.
